Molecules are shown by their SMILES. Read-outs that look alike come from different tables or passages of the source.

This is an account of results in US20250051277A1, “DELIVERY OF THERAPEUTIC ALKALOID COMPOUNDS” (Sensorium Therapeutics, Inc., priority 2021, published 2025).

The format of data set [1] is physicochemical. The settings on record: SGF with pepsin, pH 1.5, 37° C.; for Condition 1 Conversion (%): 0.5 mM; for Condition 1 Conversion (%), first value of pair x/y: first of two values; for Condition 1 Conversion (%), second value of pair x/y: second of two values.
The format of data set [2] is physicochemical. The settings on record: DI water, 25° C., 0.5 mM.

With `COc1ccc([C@]23CCN(C)[C@H]2CC2(CC3)OCC(C(=O)O)O2)cc1OC` (stereo partly drawn) [Compound 214, (3aS,7aS)-3a-(3,4-dimethoxyphenyl)-1-methyloctahydrospiro[indole-6,2′-[1,3]dioxolane]-4′-carboxylic acid], the “Condition 1 Conversion (%)” value in data set [1] (time 1 min), in data set [1] (time 5 min), in data set [1] (time 30 min), in data set [1] (time 1 h), in data set [1] (time 4 h) and in data set [1] (time 24 h) was 0% throughout. The “Condition 2 Conversion (%)” value in data set [2] (time 1 min), in data set [2] (time 5 min), in data set [2] (time 30 min), in data set [2] (time 1 h), in data set [2] (time 4 h) and in data set [2] (time 24 h) was 0% throughout.

`COc1ccc([C@@]23CC/C(=N/OC(C)(C)OC)C[C@@H]2N(C)CC3)cc1OC` [Compound 219, (Z,3aS,7aS)-3a-(3,4-dimethoxyphenyl)-N-(1-methoxy-1-methyl-ethoxy)-1-methyl-2,3,4,5,7,7a-hexahydroindol-6-imine]: the “Condition 1 Conversion (%), first value of pair x/y” value in data set [1] (time 1 min) was 100%; in data set [1] (time 5 min), 100%; in data set [1] (time 30 min), 0%; in data set [1] (time 1 h), 0%; in data set [1] (time 4 h), 0%; in data set [1] (time 24 h) it was 0%. In addition, the “Condition 1 Conversion (%), second value of pair x/y” value in data set [1] (time 1 min) is on record as 0%; in data set [1] (time 5 min) it was 0%; in data set [1] (time 30 min), 100%; in data set [1] (time 1 h), 100%; in data set [1] (time 4 h) it was 100%; in data set [1] (time 24 h), 100%. The “Condition 2 Conversion (%)” value in data set [2] (time 1 min), in data set [2] (time 5 min), in data set [2] (time 30 min), in data set [2] (time 1 h), in data set [2] (time 4 h) and in data set [2] (time 24 h) was 0% each time.

On to `COc1ccc([C@@]23CCC(=NNC(=O)c4ccc(F)cc4)C[C@@H]2N(C)CC3)cc1OC` [Compound 220, N-[[(3aS)-3a-(3,4-dimethoxyphenyl)-1-methyl-2,3,4,5,7,7a-hexahydroindol-6-ylidene]amino]-4-fluoro-benzamide], for which the “Condition 1 Conversion (%)” value in data set [1] (time 1 min) is reported as 86.72%; in data set [1] (time 5 min), 100%; in data set [1] (time 30 min), 100%; in data set [1] (time 1 h), 100%; in data set [1] (time 4 h) it was 100%; in data set [1] (time 24 h), 100%. In addition, the “Condition 2 Conversion (%)” value is 20.02% in data set [2] (time 1 min); 21.53% in data set [2] (time 5 min); 22.27% in data set [2] (time 30 min); 55.36% in data set [2] (time 1 h); 88.25% in data set [2] (time 4 h); 89.93% in data set [2] (time 24 h).

Take `COc1ccc([C@@]23CCC(=NNc4ccc(Cl)cc4)C[C@@H]2N(C)CC3)cc1OC` [Compound 221, N-[[(3aS,7aS)-3a-(3,4-dimethoxyphenyl)-1-methyl-2,3,4,5,7,7a-hexahydroindol-6-ylidene]amino]-4-chloro-aniline]: the “Condition 1 Conversion (%)” value in data set [1] (time 1 min) came to 0%; in data set [1] (time 5 min), 0%; in data set [1] (time 30 min), 2.9%; in data set [1] (time 1 h), 3.4%; in data set [1] (time 4 h) it was 17.5%; in data set [1] (time 24 h), 95.1%. The “Condition 2 Conversion (%)” value in data set [2] (time 1 min), in data set [2] (time 5 min), in data set [2] (time 30 min), in data set [2] (time 1 h), in data set [2] (time 4 h) and in data set [2] (time 24 h) was 0% in each case.

Turning to `COc1ccc([C@@]23CCC(=NNC(C)=O)C[C@@H]2N(C)CC3)cc1OC` [Compound 222, N-[[(3aS,7aS)-3a-(3,4-dimethoxyphenyl)-1-methyl-2,3,4,5,7,7a-hexahydroindol-6-ylidene]amino]acetamide], the “Condition 1 Conversion (%)” value in data set [1] (time 1 min), in data set [1] (time 5 min), in data set [1] (time 30 min), in data set [1] (time 1 h), in data set [1] (time 4 h) and in data set [1] (time 24 h) was 100% throughout. Further, the “Condition 2 Conversion (%)” value in data set [2] (time 1 min) was 10%; in data set [2] (time 5 min), 20%; in data set [2] (time 30 min), 50%; in data set [2] (time 1 h), 100%; in data set [2] (time 4 h) it was 100%; in data set [2] (time 24 h), 100%.

As to `COc1ccc([C@@]23CCC(=NNC(=O)COc4ccccc4)C[C@@H]2N(C)CC3)cc1OC` [Compound 223, N-[[(3aS,7aS)-3a-(3,4-dimethoxyphenyl)-1-methyl-2,3,4,5,7,7a-hexahydroindol-6-ylidene]amino]-2-phenoxy-acetamide], the “Condition 1 Conversion (%)” value in data set [1] (time 1 min), in data set [1] (time 5 min), in data set [1] (time 30 min), in data set [1] (time 1 h), in data set [1] (time 4 h) and in data set [1] (time 24 h) was 100% each time. In addition, the “Condition 2 Conversion (%)” value in data set [2] (time 1 min) is 9.8%; in data set [2] (time 5 min) it was 10.4%; in data set [2] (time 30 min), 13.5%; in data set [2] (time 1 h) it was 18.5%; in data set [2] (time 4 h) it was 50.1%; in data set [2] (time 24 h), 81.3%.

In the case of `COc1ccc([C@@]23CCC(=NOCCOc4ccccc4)C[C@@H]2N(C)CC3)cc1OC` [Compound 234, (3aS,7aS)-3a-(3,4-dimethoxyphenyl)-1-methyl-N-(2-phenoxyethoxy)-2,3,4,5,7,7a-hexahydroindol-6-imine], the “Condition 1 Conversion (%)” value in data set [1] (time 1 min) worked out at 0%; in data set [1] (time 5 min), 0%; in data set [1] (time 30 min), 0%; in data set [1] (time 1 h), 0%; in data set [1] (time 4 h), 2.16%; in data set [1] (time 24 h), 2.63%. Moreover, the “Condition 2 Conversion (%)” value in data set [2] (time 1 min), in data set [2] (time 5 min), in data set [2] (time 30 min), in data set [2] (time 1 h), in data set [2] (time 4 h) and in data set [2] (time 24 h) was 0% in each case.

`COc1ccc([C@@]23CCC(=NNC(=O)c4ccc(Cl)cc4)C[C@@H]2N(C)CC3)cc1OC` [Compound 240, N-[[(3aS,7aS)-3a-(3,4-dimethoxyphenyl)-1-methyl-2,3,4,5,7,7a-hexahydroindol-6-ylidene]amino]-4-chloro-benzamide]: the “Condition 1 Conversion (%)” value is on record as 84% in data set [1] (time 1 min); 100% in data set [1] (time 5 min); 100% in data set [1] (time 30 min); 100% in data set [1] (time 1 h); 100% in data set [1] (time 4 h); 100% in data set [1] (time 24 h). Besides, the “Condition 2 Conversion (%)” value in data set [2] (time 1 min) was 35.7%; in data set [2] (time 5 min), 30%; in data set [2] (time 30 min), 40.5%; in data set [2] (time 1 h), 43.3%; in data set [2] (time 4 h), 54.2%; in data set [2] (time 24 h), 100%.
